The numbers were not newly measured in patent US9371350B2, “Trehalose derivatives and pharmaceutical compositions for treating neurodegenerative diseases” (POSTECH ACADEMY-INDUSTRY FOUNDATION, priority 2008, dated 2016), which cites them from elsewhere.

The conditions of data set [1]: background, literature report.
For data set [2], the system named is polyglutamine-induced aggregate formation. Conditions: in vivo mouse model, literature report.

`O[C@H]1[C@H](O)[C@@H](O)[C@H](O)[C@@H](O)[C@H]1O` [inositol]: the “passage through the BBB to the brain” value in data set [1] was “difficulty in passing through the blood-brain barrier”.

On to `OC[C@H]1O[C@H](O[C@H]2O[C@H](CO)[C@@H](O)[C@H](O)[C@H]2O)[C@H](O)[C@@H](O)[C@@H]1O` [trehalose], for which the “passage through the BBB to the brain” value in data set [1] is on record as “cannot pass through the BBB”. In addition, the “inhibition of polyglutamine-induced aggregate formation” value in data set [2] is recorded as “efficiently inhibit”.
